Laboratory results reported in BindingDB's records for doi:10.1021/jm9707028 (Boehringer Ingelheim Pharmaceuticals, 1998).

Tests used:
Experiment in all cases: HIV-1 RT Assay
[1] = target: T1, Gag-Pol polyprotein [600-1027,G789A]/[600-1155,G789A] (Human immunodeficiency virus 1, UniProt P03366, G789A)
T1 construct: 600-1027; 600-1155

[2] = target: T2, Gag-Pol polyprotein [600-1027,K702N]/[600-1155,K702N] (Human immunodeficiency virus 1, UniProt P03366, K702N)
T2 construct: 600-1027; 600-1155

[3] = target: T3, Gag-Pol polyprotein [600-1027,P835L]/[600-1155,P835L] (Human immunodeficiency virus 1, UniProt P03366, P835L)
T3 construct: 600-1027; 600-1155

[4] = target: T4, Gag-Pol polyprotein [600-1027,V705A]/[600-1155,V705A] (Human immunodeficiency virus 1, UniProt P03366, V705A)
T4 construct: 600-1027; 600-1155

**Q.** For `CCN1c2ncc(CCc3ccccc3)cc2C(=O)N(C)c2ccc(Cl)nc21` [2,8-Substituted Dipyridodiazepinone 36], which IC50 [1] is on record?
**A.** Its IC50 is 120 nM.

**Q.** And the IC50 [2]?
**A.** The IC50 was 50 nM.

**Q.** What about the IC50 [3] of the same molecule?
**A.** The IC50 was 710 nM.

**Q.** What about the IC50 [4] of the same molecule?
**A.** Its IC50 is 840 nM.

**Q.** What does the source list for `CCN1c2ncc(CCc3ccncc3)cc2C(=O)N(C)c2ccc(Cl)nc21` [2,8-Substituted Dipyridodiazepinone 37]?
**A.** IC50 [1]: 30 nM; IC50 [2]: 120 nM; IC50 [3]: 110 nM; IC50 [4]: 550 nM
